# Where two headings read alike, the source gives them in different places.
# Tests used:
# VZV (wild-type strains) = experiment: Anti-VZV assay (wild-type strains): virus-induced cytopathicity in HEL cell cultures; type: cell-based, varicella-zoster virus; details: HEL cell cultures
# HEL cells [1] = system: HEL cells
# in vitro = details: human
# [2] = system: human lymphocyte Molt4/clone 8; experiment: Cytostatic activity assay, Molt4/clone 8 cells; type: cell-based; details: read-out: IC50 Molt4/C8 (compound concentration required to inhibit tumor cell proliferation by 50%)
# CMV = experiment: Anti-CMV assay: virus-induced cytopathicity in HEL cell cultures; details: read-out: EC50 CMV AD-169; CMV strain AD-169, HEL cell cultures
# HIV-1 (IIIB) = experiment: Inhibition of HIV-1 (IIIB)-induced cytopathicity (giant cell formation) in CEM cells; type: cell-based; details: read-out: EC50 HIV-1 (concentration required to inhibit HIV-induced giant cell formation by 50%); HIV-1, CEM cell cultures
# Description: (§1) A variety of glycopeptide antibiotic derivatives of vancomycin, eremomycin and teicoplanin including their aglycon derivatives were evaluated for their inhibitory activity against HIV-1 (IIIB) and HIV-2(ROD) in CEM cell cultures.
# HEL cells [3] = details: read-out: CC50 (HEL), HEL cells
# HIV-2(ROD) = experiment: Inhibition of HIV-2 (ROD)-induced cytopathicity (giant cell formation) in CEM cells; type: cell-based; details: read-out: EC50 HIV-2 (concentration required to inhibit HIV-induced giant cell formation by 50%); HIV-2, CEM cell cultures
# Description: as §1
# human lymphocyte CEM = experiment: Cytostatic activity assay, CEM cells; type: cell-based
# murine leukemia L1210 = experiment: Cytostatic activity assay, L1210 cells; type: cell-based; details: read-out: IC50 L1210 (compound concentration required to inhibit tumor cell proliferation by 50%)
# HIV [4] = experiment: Anti-HIV activity in cell culture, HIV type not distinguished; type: cell-based; details: read-out: EC50 against HIV
# Description: as §1
# BVDV-1 (strain PE515) = experiment: Anti-BVDV assay in MDBK cells (MTS); type: cell-based, bovine viral diarrhea virus
# Description: Cells and viruses: Madin-Darby Bovine Kidney (MDBK) cells were maintained in Dulbecco's modified Eagle medium (DMEM) supplemented with BVDV-free 5% fetal calf serum (DMBM-FCS) at 37° C. in a humidified, 5% CO2 atmosphere. BVDV-1 (strain PE515) was used to assess the antiviral activity in MDBK cells. Vero cells (ATCC CCL81) were maintained in MEM medium supplemented with 10% inactivated calf serum, 1% L-glutamine and 0.3% bicarbonate.
# Anti-BVDV assay: Ninety-six-well cell culture plates were seeded with MDBK cells in DMEM-FCS so that cells reached 24 hr later confluency. Then medium was removed and serial 5-fold dilutions of the test compounds were added in a total volume of 100 ul, after which the virus inoculum (100 ul) was added to each well. […] Uninfected cells and cells receiving virus without compound were included in each assay plate. After 5 days, medium was removed and 90 μt of DMEM-FCS and 10 ul of MTS/PMS solution (Promega) was added to each well. Following a 2 hr incubation period at 37° C. the optical density of the wells was read at 498 nm in a microplate reader.
# HIV [5] = experiment: Time of addition experiment (HIV); type: cell-based
smiles,measurement,setting,value
COC(=O)C1NC(=O)C2NC(=O)C(NC(=O)C(N)c3cc(Oc4ccc(CC(NC(=O)OCc5ccccc5)C(=O)O)cc4Cl)c(O)c(c3)Oc3ccc(cc3Cl)C2O)c2ccc(O)c(c2)-c2c(O)cc(O)cc21 (stereo not drawn) [Compound 169],EC50,"VZV (wild-type strains); Human alphaherpesvirus 3, VZV strain OKA, read-out: EC50 VZV (OKA)",34000 nM
same,MTC (HEL),HEL cells [1]; anti-VZV table,>200 µM
same,CC50,in vitro,50 µM
"N[C@H]1C(=O)N[C@@H]2Cc3ccc(c(Cl)c3)Oc3cc4cc(c3O)Oc3ccc(cc3Cl)[C@@H](O)[C@@H]3NC(=O)[C@H](NC(=O)[C@@H]4NC(=O)[C@@H](NC2=O)c2cc(O)cc(c2)Oc2cc1ccc2O)c1ccc(O)c(c1)-c1c(O)cc(O)cc1[C@@H](C(=O)O)NC3=O [Compound 112, Teicoplanin aglycon]",IC50,[2],> 500 µM
same,MTC (HEL),HEL cells [1]; anti-CMV table,≧20-200 μM
same,EC50,CMV,32 µM
same,EC50,HIV-1 (IIIB),17 ± 3.5 µM
same,CC50,HEL cells [3]; anti-CMV table,> 200 µM
same,EC50,HIV-2(ROD),20 µM
same,IC50,human lymphocyte CEM; read-out: IC50 (toxicity in cell culture),> 500 µM
same,IC50,human lymphocyte CEM; read-out: IC50 CEM (compound concentration required to inhibit tumor cell proliferation by 50%),> 500 µM
same,IC50,murine leukemia L1210,> 500 µM
same,EC50,HIV [4],17 to 20 µM
CCCCCCCCCCN1CCN(C(=O)C2NC(=O)C3NC(=O)C(NC(=O)C4NC(=O)C5NC(=O)C(Cc6ccc(c(Cl)c6)Oc6cc4cc(c6O)Oc4ccc(cc4Cl)C3O)NC(=O)C(N)c3ccc(O)c(c3)Oc3cc(O)cc5c3)c3ccc(O)c(c3)-c3c(O)cc(O)cc32)CC1 (stereo not drawn) [Compound 126],EC50,"VZV (wild-type strains); VZV strain OKA, read-out: EC50 VZV (OKA)",1000 nM
same,EC50,"VZV (wild-type strains); VZV strain YS, read-out: EC50 VZV (YS)",300 nM
same,MTC (HEL),HEL cells [1]; anti-VZV table,>5 to 50 µM
same,MTC (MDBK),MDBK cells,60
same,CC50,HEL cells [3]; anti-VZV table,> 50 µM
same,activity against BVDV,BVDV-1 (strain PE515),activity
same,EC50,BVDV-1 (strain PE515); MDBK cells,12 µM
"Cc1cn([C@H]2C[C@H](N=[N+]=[N-])[C@@H](CO)O2)c(=O)[nH]c1=O [AZT, zidovudine]",time post infection up to which addition can be delayed without loss of antiviral activity,HIV [5],at least 3 h

# Reference: US20050250677A1, “Glycopeptide antibiotic derivatives” (priority 2002, published 2005)
